Source: patent US20220023386A1, “METHOD FOR THE TREATMENT OR PREVENTION OF OSTEOARTHRITIS” (Chondropeptix B.V., priority 2016, published 2022)

Legend:
Assay in all cases: Expression of OA chondrocyte phenotype marker genes by RT-qPCR after peptide exposure
Type in all cases: cell-based, human
[1] = tested on: OA articular chondrocytes; parameters: key: [+] denotes a significantly increased expression of chondrogenic marker BAPX1/NKX3.2 or a decreased expression of OA chondrocyte phenotypic markers ALP, MMP13, ADAMTS5, COX2, COL10A and RUNX2 in OA articular chondrocytes, in comparison to untreated OA articular chondrocytes.; [−] denotes the absence of a significant effort or a significantly decreased expression of chondrogenic marker BAPX1/NKX3.2 or an increased expression of OA chondrocyte phenotypic markers ALP, MMP13, ADAMTS5, COX2, COL10A and RUNX2 in OA articular chondrocytes, in comparison to untreated OA articular chondrocytes; conditions: vs untreated OA articular chondrocytes
[2] = tested on: OA articular chondrocytes; parameters: key: [+] denotes a significantly increased expression of chondrogenic marker BAPX1/NKX3.2 or a decreased expression of OA chondrocyte phenotypic markers ALP, MMP13, ADAMTS5, COX2, COL10A and RUNX2 in OA articular chondrocytes, in comparison to untreated OA articular chondrocytes.; [−] denotes the absence of a significant effort or a significantly decreased expression of chondrogenic marker BAPX1/NKX3.2 or an increased expression of OA chondrocyte phenotypic markers ALP, MMP13, ADAMTS5, COX2, COL10A and RUNX2 in OA articular chondrocytes, in comparison to untreated OA articular chondrocytes; conditions: Table 2 (FIGS. 2-8), peptide 10 nM, 24 hours, vs untreated OA articular chondrocytes
Procedure: The action of 20-mer peptides (10 nM) of SEQ ID NO: 2-15 (peptides with 1 amino acids intervals (19 amino acid overlap)) and SEQ ID NO:49 on the expression of the indicated genes was determined on a validated pool of passage 2 OA human articular chondrocytes (n=18) and compared to full-length recombinant BMP-7 (1 nM). Samples were harvested after 24 hours and analyzed for indicated genes by RT-qPCR (corrected for 28S rRNA expression and relative to control conditions (no peptide exposure)). In the graphs, numbers on the x-axis represent individual peptides according to their SEQ ID NO:, error bars represent mean±SEM, statistical differences were calculated (one-way ANOVA with bonferroni correction) to control condition. *=p<0.05 lower than control condition for COL10A1, ALP, RUNX2, COX-2, MMP13 and ADAMTS5 and higher than control condition for BAPX1/NKX3.2. Random peptide is a peptide according to SEQ ID NO: 49 with amino acid sequence […].

[3] = tested on: OA articular chondrocytes; parameters: key to ADAMTS5 expression: [+] denotes a significantly increased expression of chondrogenic marker BAPX1/NKX3.2 or a decreased expression of OA chondrocyte phenotypic markers ALP, MMP13, ADAMTS5, COX2, COL10A and RUNX2 in OA articular chondrocytes, in comparison to untreated OA articular chondrocytes.; [−] denotes the absence of a significant effort or a significantly decreased expression of chondrogenic marker BAPX1/NKX3.2 or an increased expression of OA chondrocyte phenotypic markers ALP, MMP13, ADAMTS5, COX2, COL10A and RUNX2 in OA articular chondrocytes, in comparison to untreated OA articular chondrocytes; conditions: for ADAMTS5 expression: Table 3, N- and C-terminally truncated peptides, vs untreated OA articular chondrocytes; for suppression of the OA chondrocyte phenotype: independent of the tested concentration (1000, 100, 10 and 1 nM were tested)
[4] = Table 2 (FIGS. 2-8), peptide 10 nM, 24 hours
[5] = Table 3, N- and C-terminally truncated peptides

Substance | MMP13 expression [1, 4] | ADAMTS5 expression [2] | ALP expression [2] | BAPX1/NKX3.2 expression [2] | COL10A expression [2] | COX-2 expression [2] | RUNX2 expression [2] | suppression of the OA chondrocyte phenotype [3] | other results
2 (WIIAPEGYAAYYSEGESAFP; homo sapiens) [compound 2] | − | − | − | − | − | + | − |  | 
3 (IIAPEGYAAYYSEGESAFPL; homo sapiens) [compound 3] | − | − | − | − | − | + | − |  | 
4 (IAPEGYAAYYSEGESAFPLN; homo sapiens) [compound 4] | − | − | − | − | − | + | − |  | 
5 (APEGYAAYYSEGESAFPLNS; homo sapiens) [compound 5] | − | + | + | + | + | + | + |  | 
6 (PEGYAAYYSEGESAFPLNSY; homo sapiens) [compound 6] | − | + | + | + | + | + | + |  | 
7 (EGYAAYYSEGESAFPLNSYM; homo sapiens) [compound 7] |  | + | + | + | + | + | + |  | 
8 (GYAAYYSEGESAFPLNSYMN; homo sapiens) [compound 8] | + | + | + | + | + | + | + |  | 
9 (YAAYYSEGESAFPLNSYMNA; homo sapiens) [compound 9] | + | + | + | + | + | + | + |  | 
10 (AAYYSEGESAFPLNSYMNAT; homo sapiens) [compound 10] | + | + | + | + | + | + | + |  | 
11 (AYYSEGESAFPLNSYMNATN; homo sapiens) [compound 11] | + | + | + | + | + | + | + |  | 
12 (YYSEGESAFPLNSYMNATNH; homo sapiens) [compound 12] | + | + | + | + | + | + | + |  | 
13 (YSEGESAFPLNSYMNATNHA; homo sapiens) [compound 13] | + | + | + | + | + | + | + |  | 
14 (SEGESAFPLNSYMNATNHAI; homo sapiens) [compound 14] | − | − | − | − | − | − | + |  | 
15 (EGESAFPLNSYMNATNHAIV; homo sapiens) [compound 15] | − | − | − | − | − | − | + |  | 
17 (APEGYAAYYSEGESAFPLNS; homo sapiens) [compound 17] |  |  |  |  |  |  |  |  | ADAMTS5 expression [3]: +; ALP expression [1, 5]: +; BAPX1/NKX3.2 expression [1, 5]: +; COL10A expression [1, 5]: +; COX-2 expression [1, 5]: +; MMP13 expression [1, 5]: −; RUNX2 expression [1, 5]: +
18 (PEGYAAYYSEGESAFPLNS; homo sapiens) [compound 18] |  |  |  |  |  |  |  |  | ADAMTS5 expression [3]: +; ALP expression [1, 5]: +; BAPX1/NKX3.2 expression [1, 5]: +; COL10A expression [1, 5]: +; COX-2 expression [1, 5]: +; MMP13 expression [1, 5]: −; RUNX2 expression [1, 5]: +

Substance | MMP13 expression [1, 4] | ADAMTS5 expression [2] | ALP expression [2] | BAPX1/NKX3.2 expression [2] | COL10A expression [2] | COX-2 expression [2] | RUNX2 expression [2] | suppression of the OA chondrocyte phenotype [3] | other results
19 (EGYAAYYSEGESAFPLNS; homo sapiens) [compound 19] |  |  |  |  |  |  |  |  | ADAMTS5 expression [3]: +; ALP expression [1, 5]: +; BAPX1/NKX3.2 expression [1, 5]: +; COL10A expression [1, 5]: +; COX-2 expression [1, 5]: +; MMP13 expression [1, 5]: +; RUNX2 expression [1, 5]: +
20 (GYAAYYSEGESAFPLNS; homo sapiens) [compound 20] |  |  |  |  |  |  |  |  | ADAMTS5 expression [3]: +; ALP expression [1, 5]: +; BAPX1/NKX3.2 expression [1, 5]: +; COL10A expression [1, 5]: +; COX-2 expression [1, 5]: +; MMP13 expression [1, 5]: +; RUNX2 expression [1, 5]: +
21 (YAAYYSEGESAFPLNS; homo sapiens) [compound 21] |  |  |  |  |  |  |  |  | ADAMTS5 expression [3]: +; ALP expression [1, 5]: +; BAPX1/NKX3.2 expression [1, 5]: +; COL10A expression [1, 5]: +; COX-2 expression [1, 5]: +; MMP13 expression [1, 5]: +; RUNX2 expression [1, 5]: +
AAYYSEGESAFPLNSYMNAT (homo sapiens) [SEQ ID NO: 10] |  |  |  |  |  |  |  | efficiently suppressed | 
APEGYAAYYSEGESAFPLNS (homo sapiens) [SEQ ID NO: 5] |  |  |  |  |  |  |  | efficiently suppressed | 
AYYSEGESAFPLNSYMNATN (homo sapiens) [SEQ ID NO: 11] |  |  |  |  |  |  |  | efficiently suppressed | 
EGESAFPLNSYMNATNHAIV (homo sapiens) [SEQ ID NO: 15] |  |  |  |  |  |  |  | efficiently suppressed | 
EGYAAYYSEGESAFPLNSYM (homo sapiens) [SEQ ID NO: 7] |  |  |  |  |  |  |  | efficiently suppressed | 
IAPEGYAAYYSEGESAFPLN (homo sapiens) [SEQ ID NO: 4] |  |  |  |  |  |  |  | efficiently suppressed | 
IIAPEGYAAYYSEGESAFPL (homo sapiens) [SEQ ID NO: 3] |  |  |  |  |  |  |  | efficiently suppressed | 
PEGYAAYYSEGESAFPLNSY (homo sapiens) [SEQ ID NO: 6] |  |  |  |  |  |  |  | efficiently suppressed | 
SEGESAFPLNSYMNATNHAI (homo sapiens) [SEQ ID NO: 14] |  |  |  |  |  |  |  | efficiently suppressed | 
WIIAPEGYAAYYSEGESAFP (homo sapiens) [SEQ ID NO: 2] |  |  |  |  |  |  |  | efficiently suppressed | 
YAAYYSEGESAFPLNSYMNA (homo sapiens) [SEQ ID NO: 9] |  |  |  |  |  |  |  | efficiently suppressed | 
YSEGESAFPLNSYMNATNHA (homo sapiens) [SEQ ID NO: 13] |  |  |  |  |  |  |  | efficiently suppressed | 
YYSEGESAFPLNSYMNATNH (homo sapiens) [SEQ ID NO: 12] |  |  |  |  |  |  |  | efficiently suppressed | 
